According to article PMC8751651 (ACS Omega, 2021):
Entries after “also recorded” stand apart in the source; their conditions may differ. Where a SMILES comes first, the peptide text is derived from it. Where no end group is shown, it is not given here. The star is where a group is joined. Biotin = O=C1N[C@H]2[C@H](CS[C@H]2CCCCC(=O)*)N1

Assays:
SARS-CoV-2 RBD protein [1] = target: T1, SARS-CoV-2 RBD protein (Severe acute respiratory syndrome coronavirus 2, UniProt P0DTC2); format: binding
SARS-CoV-2 RBD protein [2] = target: T1, SARS-CoV-2 RBD protein; format: binding; remark: listed apart in the source
[3] = system: inactivated SARS-CoV-2 virus; format: binding, SARS-CoV-2 (Isolate: USA-WA1/2020)
influenza A virus = format: binding

CC(C)C[C@H](NC(=O)[C@H](Cc1ccccc1)NC(=O)[C@H](CC(=O)O)NC(=O)[C@H](Cc1ccccc1)NC(=O)[C@H](CS)NC(=O)[C@H](CO)NC(=O)CCCC[C@@H]1SC[C@@H]2NC(=O)N[C@@H]21)C(=O)N[C@@H](CC(N)=O)C(=O)N[C@@H](Cc1c[nH]c2ccccc12)C(=O)N[C@@H](C)C(=O)N[C@@H](CO)C(=O)N[C@@H](CS)C(=O)N[C@@H](CC(=O)O)C(=O)NCC(=O)NCC(=O)NCC(=O)N[C@@H](CO)C(=O)O [peptide 1] (Biotin-SCFDFLNWASCDGGGS-OH; C-terminus assumed)
SPR binding (SARS-CoV-2 RBD protein [1]): significant binding
SPR binding curves / binding efficiency (SARS-CoV-2 RBD protein [2]): can efficiently bind to the SARS-CoV-2 RBD protein; also recorded: highest binding efficiency
binding to inactivated virus [3]: can specifically bind to the SARS-CoV-2 virus
gold nanoparticles on magnetic beads (TEM) [3]: gold nanoparticles (dashed red circle) have conjugated onto the magnetic beads; also recorded: gold nanoparticles are observed on the magnetic beads
gold nanoparticles on magnetic beads (TEM) (influenza A virus): no gold nanoparticles are observed bound to the surface

Biotin-SCFDFLNWASCDGGGS (cysteine pairing not given here) [Biotinylated peptide 1]
gold nanoparticles on magnetic beads (TEM) [3]: gold nanoparticles (dashed red circle) have conjugated onto the magnetic beads
